Results published in article PMC4899770, “Core-shell nanocarriers with high paclitaxel loading for passive and active targeting” (Scientific Reports, 2016).

Conditions: rat, in vivo, iv, 10 mg/kg
Procedure: Blood samples (0.5 mL) were collected from rat orbit at the time points of 0.083, 0.25, 0.5, 1, 2, 4, 6 and 8 h. The blood samples were centrifuged for 10 min at 5,000 rpm in a desktop centrifuge (Anke TGL-16G, Shanghai, China), and the plasma was separated and transferred to microcentrifuge tubes. The PTX in plasma was measured using an HPLC system after extraction with ethylether and redissolved in methanol. The pharmacokinetic parameters of PTX were calculated using a non-compartmental model with Kinetica 5.0 (Thermo Fisher Scientific Inc., MA, USA).
Two hundred microliter of plasma samples were mixed with 10 µL of internal standard (100 ng/mL diazepam in methanol), followed by vortexing for 60 s. Following mixing into 800 µL of ethylether, the sample was vortexed for 2 min and centrifuged at 12,700 g for 10 min. Subsequently, the supernatant was collected and dried under a stream of nitrogen. The residual was redisolved in 100 µL of mobile phase, votexed for 3 min and centrifuged at 10,625 g for 5 min^7. Finally, 20 µL of the supernatant was injected into the HPLC system for analysis under the conditions described below.
PTX measurement was performed on a LC-10AT HPLC system (Shimadzu, Japan). It was separated at 30 °C using an ODS-C18 column (4.6 mm × 250 mm, Diamonsil, China). The samples were eluted with acetonitrile and water (54: 46, v/v) at the flow rate of 1.0 mL/min and monitored at 227 nm^8.

Taxol^®
AUC0-∞: 4380 ± 3570 ng·h/mL
CL: 1.68 ± 1.19 L/h
MRT: 1.78 ± 0.88 h
k (elimination rate constant): 2.99 ± 2.88 h⁻¹
